Results from publication PMC6151589, “Identification of Optically Active Pyrimidine Derivatives as Selective 5-HT2C Modulators” (Molecules : A Journal of Synthetic Chemistry and Natural …, 2017).
Where two headings read alike, the source gives them in different places.

Assays:
5-HT1B = target: T1, 5-HT1B (Homo sapiens, UniProt P28222); experiment: biochemical; design: species or system HEK293 or CHO; competitive radioligand binding on crude membranes, filtration and scintillation counting
T1 construct: gene HTR1B; human recombinant receptor, crude membranes of HEK293 or CHO cells
T1 sequence (P28222 whole entry): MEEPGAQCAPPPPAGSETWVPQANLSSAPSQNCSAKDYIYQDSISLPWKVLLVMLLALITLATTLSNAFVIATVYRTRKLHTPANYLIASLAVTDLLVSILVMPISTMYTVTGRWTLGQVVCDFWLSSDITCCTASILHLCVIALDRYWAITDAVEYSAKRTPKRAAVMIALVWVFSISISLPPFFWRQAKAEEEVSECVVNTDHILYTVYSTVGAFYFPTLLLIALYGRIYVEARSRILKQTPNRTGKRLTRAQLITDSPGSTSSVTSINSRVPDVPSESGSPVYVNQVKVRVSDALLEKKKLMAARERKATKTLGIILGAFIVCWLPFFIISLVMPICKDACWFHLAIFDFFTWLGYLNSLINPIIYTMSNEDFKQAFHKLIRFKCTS
Protocol: (§1) Eleven dilutions (5 × assay concentration) of the test and reference compounds (Table S1) were prepared in standard binding buffer (50 mM tris(hydroxymethyl)-aminomethane-HCl (Tris-HCl), 10 mM MgCl2, 1 mM ethylenediaminetetraacetate (EDTA), pH 7.4) by serial dilution: 0.05 nM, 0.5 nM, 1.5 nM, 5 nM, 15 nM, 50 nM, 150 nM, 500 nM, 1.5 μM, 5 μM, and 50 μM. The radioligand (Table S3) was diluted to five times the assay concentration in standard binding buffer. Aliquots ([…]) of the radioligand were dispensed into the wells of a 96-well plate containing […] of standard binding buffer. Triplicate aliquots ([…]) of the test and reference compound dilutions were then added. Finally, crude membrane fractions ([…]) of cells (HEK293 or CHO) expressing human recombinant receptors were dispensed into each well. A total of […] of the reaction mixtures was incubated at room temperature and shielded from light for 1.5 h, and was then harvested by rapid filtration onto Whatman GF/B glass fiber filters presoaked with 0.3% polyethyleneimine, by using a 96-well Brandel harvester (Gaithersburg, MD, USA). Four rapid washes were performed with chilled standard binding buffer (500 mL) to decrease nonspecific binding. Filters were placed in 6 mL scintillation tubes and allowed to dry overnight. The next day, 4-mL of EcoScint scintillation cocktail (National Diagnostics) was added to each tube. The tubes were capped, labeled, and counted by […] scintillation counting. The filter mats were dried, and the scintillant was melted onto the filters, then the radioactivity retained on the filters was counted in a Microbeta scintillation counter. The IC50 values were obtained by using the Prism 4.0 program (GraphPad Software, La Jolla, CA, USA) and were converted into Ki values. Each compound was tested at least in triplicate. With each enantiomer (R)- or (S)-5d and 5e in hand, the optically active pyrimidine derivatives 4d–4e were synthesized following the same reaction sequences (Scheme 3). Finally, compounds 4d and 4e were assessed for their binding affinity to 5-HT2 receptor subtypes by radioligand binding assays. […] A further evaluation of these compounds for other 5-HT receptor subtypes was also performed and is provided in the supplementary data (Table S2). […] Considering the potencies and selectivities of 4, we can conclude that (R,R)-4e would be a viable candidate for a selective 5-HT2C modulator.

5-HT7 = target: T2, 5-HT7 (Homo sapiens, UniProt P34969); experiment: biochemical; design: species or system HEK293 or CHO; competitive radioligand binding on crude membranes, filtration and scintillation counting; details: for Ki: read-out: Ki (nM), 7
T2 construct: gene HTR7; human recombinant receptor, crude membranes of HEK293 or CHO cells
T2 sequence (P34969 whole entry): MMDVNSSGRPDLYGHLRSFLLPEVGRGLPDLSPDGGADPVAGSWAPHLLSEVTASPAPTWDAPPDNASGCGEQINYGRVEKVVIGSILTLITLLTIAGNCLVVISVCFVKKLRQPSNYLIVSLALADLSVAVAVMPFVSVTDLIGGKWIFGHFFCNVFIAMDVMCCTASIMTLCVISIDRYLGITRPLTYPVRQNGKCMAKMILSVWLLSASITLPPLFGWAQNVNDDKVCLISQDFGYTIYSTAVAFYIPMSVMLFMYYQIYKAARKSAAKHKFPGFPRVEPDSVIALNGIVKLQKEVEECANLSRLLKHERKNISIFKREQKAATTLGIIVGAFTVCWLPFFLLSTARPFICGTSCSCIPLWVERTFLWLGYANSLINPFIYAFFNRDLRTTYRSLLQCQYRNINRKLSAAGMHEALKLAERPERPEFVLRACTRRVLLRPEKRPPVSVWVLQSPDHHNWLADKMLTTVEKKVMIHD
Protocol: as §1

5-HT1E = target: T3, 5-HT1E (Homo sapiens, UniProt P28566); experiment: biochemical; design: species or system HEK293 or CHO; competitive radioligand binding on crude membranes, filtration and scintillation counting; details: for Ki: read-out: Ki (nM), 1E
T3 construct: gene HTR1E; human recombinant receptor, crude membranes of HEK293 or CHO cells
T3 sequence (P28566 whole entry): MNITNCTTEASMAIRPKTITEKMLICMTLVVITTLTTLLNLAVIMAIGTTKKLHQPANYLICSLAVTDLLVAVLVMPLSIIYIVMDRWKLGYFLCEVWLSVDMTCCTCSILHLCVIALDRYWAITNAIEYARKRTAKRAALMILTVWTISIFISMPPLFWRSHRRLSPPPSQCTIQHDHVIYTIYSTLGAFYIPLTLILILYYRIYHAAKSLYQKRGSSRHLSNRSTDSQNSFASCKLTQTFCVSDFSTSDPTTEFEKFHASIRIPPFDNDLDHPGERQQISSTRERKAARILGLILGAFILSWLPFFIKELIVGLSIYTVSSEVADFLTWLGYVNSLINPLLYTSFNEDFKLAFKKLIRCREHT
Protocol: as §1

5-HT2A = target: T4, 5-HT2A (Homo sapiens, UniProt P28223); experiment: radioligand displacement, membranes; assay type: binding
T4 construct: gene HTR2A; human recombinant receptor; crude membrane fractions of transfected HEK293 or CHO cells
T4 sequence (P28223 whole entry): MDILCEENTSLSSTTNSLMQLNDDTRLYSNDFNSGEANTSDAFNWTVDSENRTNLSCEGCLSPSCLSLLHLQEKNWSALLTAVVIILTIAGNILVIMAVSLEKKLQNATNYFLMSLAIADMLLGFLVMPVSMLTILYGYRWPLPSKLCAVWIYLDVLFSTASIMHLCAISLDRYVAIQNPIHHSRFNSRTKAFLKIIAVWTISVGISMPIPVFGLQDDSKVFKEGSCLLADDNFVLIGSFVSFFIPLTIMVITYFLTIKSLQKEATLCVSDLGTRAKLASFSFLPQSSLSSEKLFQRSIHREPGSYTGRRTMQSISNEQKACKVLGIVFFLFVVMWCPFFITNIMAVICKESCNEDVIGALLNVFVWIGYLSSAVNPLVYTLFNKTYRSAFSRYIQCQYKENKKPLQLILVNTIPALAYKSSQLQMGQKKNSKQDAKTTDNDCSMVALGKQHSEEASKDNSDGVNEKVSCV
Source text: radioligand displacement, membranes on 5-HT2A

5-HT2B [1] = target: T5, 5-HT2B (Homo sapiens, UniProt P41595); experiment: radioligand displacement, membranes; assay type: binding
T5 construct: gene HTR2B; human recombinant receptor; crude membrane fractions of transfected HEK293 or CHO cells
T5 sequence (P41595 whole entry): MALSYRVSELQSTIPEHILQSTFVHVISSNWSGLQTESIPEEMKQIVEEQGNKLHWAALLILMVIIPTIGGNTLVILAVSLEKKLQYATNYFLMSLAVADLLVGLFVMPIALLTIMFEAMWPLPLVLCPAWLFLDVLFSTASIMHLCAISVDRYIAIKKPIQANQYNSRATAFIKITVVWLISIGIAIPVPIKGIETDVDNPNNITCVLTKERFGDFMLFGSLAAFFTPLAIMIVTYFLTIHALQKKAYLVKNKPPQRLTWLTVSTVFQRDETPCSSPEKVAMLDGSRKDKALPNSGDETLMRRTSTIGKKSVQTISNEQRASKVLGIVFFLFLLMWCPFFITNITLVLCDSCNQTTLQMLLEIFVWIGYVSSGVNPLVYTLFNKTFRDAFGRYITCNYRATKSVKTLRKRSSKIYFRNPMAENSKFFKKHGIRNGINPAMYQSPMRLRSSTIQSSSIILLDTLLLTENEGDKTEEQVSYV
Source text: radioligand displacement, membranes on 5-HT2B

5-HT2B [2] = target: T5, 5-HT2B; experiment: biochemical; design: species or system HEK293 or CHO; competitive radioligand binding on crude membranes, filtration and scintillation counting
Protocol: as §1

5-HT2C = target: T6, 5-HT2C (Homo sapiens, UniProt P28335); experiment: [3H]mesulergine displacement, membranes; assay type: binding; details: pH […] MgCl2, room temperature; reference compound, may stem from the authors' earlier study (ref […])
T6 construct: gene HTR2C; human recombinant receptor; crude membrane fractions of transfected cells (CHO-K1; HEK293 or CHO)
T6 sequence (P28335 33-458): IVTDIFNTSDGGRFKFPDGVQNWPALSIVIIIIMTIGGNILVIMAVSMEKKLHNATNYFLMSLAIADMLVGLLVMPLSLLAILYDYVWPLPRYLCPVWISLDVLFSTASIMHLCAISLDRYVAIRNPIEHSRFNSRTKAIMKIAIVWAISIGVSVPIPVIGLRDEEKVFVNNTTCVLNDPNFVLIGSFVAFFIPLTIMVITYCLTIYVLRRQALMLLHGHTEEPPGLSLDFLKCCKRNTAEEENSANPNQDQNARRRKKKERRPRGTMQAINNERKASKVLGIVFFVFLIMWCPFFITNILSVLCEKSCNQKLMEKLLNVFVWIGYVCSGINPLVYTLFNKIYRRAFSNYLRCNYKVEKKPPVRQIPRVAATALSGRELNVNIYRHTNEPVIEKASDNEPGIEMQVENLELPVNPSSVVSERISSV
Source text: [3H]mesulergine displacement, membranes on 5-HT2C

Row | SMILES | inhibition at 10 µM (5-HT1B) [%] | inhibition at 10 µM (5-HT7) [%] | Ki (5-HT7) [nM] | inhibition at 10 µM (5-HT1E) [%] | Ki (5-HT2A) [nM] | Ki (5-HT2B [1]) [nM] | inhibition at 10 µM (5-HT2B [2]) [%] | Ki (5-HT1E) [nM] | Ki (5-HT1B; read-out: Ki (nM), 1B) [nM] | Ki (5-HT2C) [nM] | Ki (5-HT2B [1]; pH […] MgCl2, room temperature, reference compound, may stem from the authors' earlier study (ref […])) [nM] | 5-HT2A / %Binding (5-HT2A; pH 7.4, 10 mM MgCl2, room temperature, single concentration, 10 μM) [%]
1 | C[C@H](Oc1nc(N2CCNC[C@H]2C)ncc1F)c1cccc(F)c1 [(S,R)-4d, 5-Fluoro-4-((S)-1-(3-fluorophenyl)ethoxy)-2-((R)-2-methylpiperazin-1-yl)pyrimidine] | 3 | 56.9 | 766 | 29.5 | 475 | 67 | – | – | – | – | – | –
2 | C[C@@H]1CNCCN1c1ncc(F)c(O[C@H](C)c2cccc(F)c2)n1 [(R,R)-4d, 5-Fluoro-4-((R)-1-(3-fluorophenyl)ethoxy)-2-((R)-2-methylpiperazin-1-yl)pyrimidine] | 27.7 | 84.4 | 444 | 67.5 | 222 | 2.6 | 100 | 1160 | – | – | – | –
3 | C[C@H](Cc1cccc(F)c1)Oc1nc(N2CCNC[C@H]2C)ncc1F [compound 3, pyrimidine analogue 3] | 55.1 | 94.7 | 84 | 65.6 | 128 | – | 97.4 | 1160 | 1780 | 0.7 | 7.9 | –
4 | C[C@H](Oc1nc(N2CCNC[C@H]2C)ncc1F)c1ccc(F)cc1 [(S,R)-4e, 5-Fluoro-4-((S)-1-(4-fluorophenyl)ethoxy)-2-((R)-2-methylpiperazin-1-yl)pyrimidine] | 17.9 | 64.8 | 946 | – | 1020 | 128 | 95.3 | – | – | – | – | –
5 | C[C@@H]1CNCCN1c1ncc(F)c(O[C@H](C)c2ccc(F)cc2)n1 [(R,R)-4e, 5-Fluoro-4-((R)-1-(4-fluorophenyl)ethoxy)-2-((R)-2-methylpiperazin-1-yl)pyrimidine] | 6.4 | 87.6 | 236 | 42.7 | – | 19 | 99.6 | – | – | – | – | 0.9
